Experimental data as given in the CheMixHub ionic liquid set.

Assay: xn = mol fraction of the nth substance listed
Conditions: 101.3 kPa

NC(N)=NCCC[C@H](N)C(=O)O + CCCC[n+]1ccn(C)c1.[Br-] + O
viscosity [mPa·s]
Conditions | 293.15 K | 298.15 K | 303.15 K | 308.15 K | 313.15 K
x1 = 0.000359, x2 = 0 | 1.013 | 0.904 | 0.839 | 0.771 | 0.691
x1 = 0.0003655, x2 = 0.00072 | 1.037 | 0.922 | 0.833 | 0.754 | 0.688
x1 = 0.0003655, x2 = 0.001439 | 1.058 | 0.914 | 0.816 | 0.744 | 0.675
x1 = 0.0007208, x2 = 0 | 1.025 | 0.915 | 0.851 | 0.783 | 0.703
x1 = 0.0007266, x2 = 0.0007198 | 1.048 | 0.933 | 0.844 | 0.766 | 0.7
x1 = 0.0007324, x2 = 0.001438 | 1.069 | 0.925 | 0.827 | 0.756 | 0.686
x1 = 0.001079, x2 = 0 | 1.036 | 0.927 | 0.863 | 0.795 | 0.715
x1 = 0.001088, x2 = 0.0007195 | 1.059 | 0.944 | 0.855 | 0.777 | 0.712
x1 = 0.001098, x2 = 0.001438 | 1.08 | 0.936 | 0.838 | 0.767 | 0.698
x1 = 0.001446, x2 = 0 | 1.047 | 0.938 | 0.874 | 0.806 | 0.726
x1 = 0.001452, x2 = 0.0007192 | 1.07 | 0.955 | 0.866 | 0.788 | 0.723
x1 = 0.001462, x2 = 0.001437 | 1.091 | 0.947 | 0.849 | 0.778 | 0.709
x1 = 0.001811, x2 = 0.000719 | 1.081 | 0.966 | 0.877 | 0.799 | 0.734
x1 = 0.00182, x2 = 0 | 1.059 | 0.949 | 0.885 | 0.817 | 0.737
x1 = 0.001827, x2 = 0.001437 | 1.102 | 0.958 | 0.86 | 0.789 | 0.72
x1 = 0.002121, x2 = 0.001436 | 1.114 | 0.97 | 0.872 | 0.801 | 0.732
x1 = 0.002158, x2 = 0 | 1.073 | 0.961 | 0.897 | 0.829 | 0.749
x1 = 0.002174, x2 = 0.0007187 | 1.093 | 0.978 | 0.889 | 0.811 | 0.746
x1 = 0.002516, x2 = 0 | 1.087 | 0.975 | 0.911 | 0.843 | 0.763
x1 = 0.002537, x2 = 0.0007185 | 1.106 | 0.991 | 0.902 | 0.824 | 0.759
x1 = 0.002557, x2 = 0.001436 | 1.127 | 0.983 | 0.885 | 0.814 | 0.745
